# From ChEMBL document CHEMBL1201862, “PubChem BioAssay data set” (2004)
# Activity calls are given as the source filed them.
# Assays:
# [1] = inhibitors of Trypanosoma cruzi host-cell infection, confirmation, beta-gal luminescence, NIH3T3 host cells (AID 2630); format: functional, cell-based; details: Mus musculus
# Trypanosoma cruzi = assay: growth inhibition of intracellular Trypanosoma cruzi, dose response, cell-based, plate reader, dry powder, set 3 (AID 493197); format: functional
# HEK293 [2] = assay: PMA/Ionomycin-induced IL-8 production in HEK293- NF-kB-Luc stable cells. [Related pubchem assays: 1299, 1295, 1375, 1287, 1281, 1293, 1291, 1289, 1280, 465, 1364, 1282, 1372, 1365, 1367, 1366, 1266, 1269, 1373, 1292, 1290, 1302, 1371, 1283, 1271, 1294, 1374, 1368, 1369 ]; format: functional, cell-based; details: Homo sapiens
# [3] = target: T1, Luciferin 4-monooxygenase (Photinus pyralis, UniProt P08659); assay: In vitro luciferase assay using purified luciferase. [Related pubchem assays: 1299, 1270, 1295, 1375, 1287, 1281, 1293, 1291, 1289, 1280, 465, 1364, 1282, 1372, 1365, 1370, 1367, 1366, 1266, 1373, 1292, 1290, 1302, 1371, 1283, 1271, 1294, 1374, 1368, 1369 ]
# HT-1080 = assay: cytotoxicity in HT1080 fibrosarcoma cells, cell-based, fluorescence readout (AID 620); format: functional; details: Homo sapiens
# HEK293 [4] = assay: Cytotoxicity assay in HEK293 cells. [Related pubchem assays (depositor defined):AID1266, AID1269, AID1270, AID1271, AID1280, AID1281, AID1282, AID1283, AID1287, AID1289, AID1290, AID1291, AID1292, AID1293, AID1294, AID1295, AID1299, AID1302, AID1364, AID1365, AID1366, AID1367, AID1369, AID1370, AID1371, AID1372, AID1373, AID1374, AID1375, AID1384 …; format: functional, cell-based; details: Homo sapiens
# [5] = target: Glyceraldehyde-3-phosphate dehydrogenase (Homo sapiens, UniProt P04406)
# [6] = inhibitors of clade B AD8 Env fusion, dose response, cell-based, cherry-pick (AID 652062); format: functional;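 also: luciferase signal from cell-cell fusion driven by HIV-1 clade B AD8 Env; potency is for inhibitors of fusion seen as a drop in luminescence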
# HEK293 [7] = assay: PMA/Ionomycin induced NF-kB luciferase assay in 293- NF-kB-Luc stable cells. [Related pubchem assays: 1299, 1270, 1295, 1375, 1287, 1281, 1293, 1291, 1289, 1280, 465, 1364, 1282, 1372, 1365, 1370, 1367, 1366, 1269, 1373, 1292, 1290, 1302, 1371, 1283, 1271, 1294, 1374, 1368, 1369 ]; format: functional, cell-based; details: Homo sapiens
# [8] = target: T1, Luciferin 4-monooxygenase; assay: Counter Screen for Luciferase-based Assay Positives. [Related pubchem assays: 620, 618, 411 ]
# HEK293 [9] = assay: TNF Induced NF-kB Luciferase in 293-NF-kB-Luc Stable Cells. [Related pubchem assays: 1266, 1299, 1269, 1373, 1292, 1290, 1302, 1371, 1283, 1270, 1295, 1271, 1375, 1294, 1374, 1281, 1293, 1291, 1289, 1280, 465, 1368, 1364, 1282, 1372, 1365, 1369, 1370, 1367, 1366 ]; format: functional, cell-based; details: Homo sapiens
# [10] = Luminescence-based counterscreen assay for KLF5 inhibitors: dose response cell-based high throughput screening assay to identify cytotoxic compounds using the IEC-6 intestinal epithelial cell line. [Related pubchem assays: 1700 (Primary screen.), 1834 (Confirmation screen.), 1858 (Summary AID.), 1905 (Counterscreen.)]; format: functional
# [11] = inhibitors of HIV Env-driven cell fusion, dose response, cherry-pick (AID 652057); format: functional, cell-based
# [12] = off-target signal loss in HeLa-CEM21 co-culture – HeLa F-luc CTL cells, cherry-picked, counter-screen for HIV-1 Env fusion inhibitor project, dose response (AID 652040); format: functional, cell-based;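 also: potency for signal decrease marking cytotoxic or nonspecific inhibition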
# Protein Tat = Protein Tat (Human immunodeficiency virus type 1 group M subtype B (isolate HXB2)(HIV-1), UniProt P04608); format: functional;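 also: tat binding to TAR RNA read out by fluorescence polarization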
# [13] = ZM109 Env clade C HIV-1 fusion inhibitors, dose response, HeLa effector, CEM target cells, luciferase, cherry-pick (AID 652058); format: functional, cell-based
# [14] = target: T2, Kappa-type opioid receptor (Homo sapiens, UniProt P41145); format: functional
# [15] = target: T2, Kappa-type opioid receptor; format: functional; remark: listed apart in the source
# [16] = target: Voltage-dependent T-type calcium channel subunit alpha-1H (Homo sapiens, UniProt O95180); format: functional;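 also: channel activity triggered by adding a high calcium stimulation buffer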
# Beta-galactosidase = Beta-galactosidase (Escherichia coli, UniProt Q8VNN2); format: functional
# [17] = target: T3, Runt-related transcription factor 1/Core-binding factor subunit beta (Homo sapiens, UniProt Q01196+Q13951); assay: inhibitors of RUNX1 Runt–CBFb-SMMHC binding, primary screen, biochemical, FRET, Cerulean-Runt, Venus-CBFb-SMMHC, uHTS (AID 1434); format: protein assay;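 also: partner is the CBFb-SMMHC leukemia fusion protein rather than wild-type CBFb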
# [18] = target: T3, Runt-related transcription factor 1/Core-binding factor subunit beta; assay: Confirmation of compounds inhibiting the binding between the RUNX1 Runt domain and CBFb-SMMHC via a fluorescence resonance energy transfer (FRET) assay. [Related pubchem assays (depositor defined):AID1434, AID1438, AID1496, AID1550, AID1645]; format: protein assay
# [19] = target: T3, Runt-related transcription factor 1/Core-binding factor subunit beta; assay: inhibitors of RUNX1 Runt–CBFb-SMMHC binding, biochemical, TR-FRET (AID 1438); format: protein assay
# [20] = target: T3, Runt-related transcription factor 1/Core-binding factor subunit beta; assay: Confirmation of compounds inhibiting the binding between the RUNX1 Runt domain and CBFb-SMMHC via a time resolved fluorescence resonance energy transfer (TR-FRET) assay. [Related pubchem assays (depositor defined):AID1434, AID1438, AID1496, AID1560, AID1645]; format: protein assay
# INS1 = assay: beta cell apoptosis inhibitors, cytokine rescue, dose response, luminescence, retest (AID 449756); format: functional, cell-based; details: Rattus norvegicus;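 also: cell death triggered by IL-1 beta plus TNF-alpha plus IFN-gamma mixture; protective hits raise ATP signal compared with cytokine alone wells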
# Vero = Vero cell cytotoxicity, cytotoxicity control for flavivirus capping enzyme inhibitors (AID 588742); format: functional; details: Chlorocebus sabaeus
# T3 sequence (Q01196 whole entry, the tested form may be a part): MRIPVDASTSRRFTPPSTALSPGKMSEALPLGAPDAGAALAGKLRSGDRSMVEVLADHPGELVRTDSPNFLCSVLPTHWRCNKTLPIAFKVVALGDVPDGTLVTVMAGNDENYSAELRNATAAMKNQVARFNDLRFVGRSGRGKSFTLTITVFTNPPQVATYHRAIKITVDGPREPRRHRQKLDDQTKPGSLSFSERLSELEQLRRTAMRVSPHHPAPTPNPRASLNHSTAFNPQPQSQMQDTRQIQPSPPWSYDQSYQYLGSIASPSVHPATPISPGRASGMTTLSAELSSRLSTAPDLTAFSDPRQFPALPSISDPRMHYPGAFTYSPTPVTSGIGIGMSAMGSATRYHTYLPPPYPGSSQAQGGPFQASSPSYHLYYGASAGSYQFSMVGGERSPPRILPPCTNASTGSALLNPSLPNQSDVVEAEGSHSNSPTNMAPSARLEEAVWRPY
# T3 sequence (Q13951 whole entry, the tested form may be a part): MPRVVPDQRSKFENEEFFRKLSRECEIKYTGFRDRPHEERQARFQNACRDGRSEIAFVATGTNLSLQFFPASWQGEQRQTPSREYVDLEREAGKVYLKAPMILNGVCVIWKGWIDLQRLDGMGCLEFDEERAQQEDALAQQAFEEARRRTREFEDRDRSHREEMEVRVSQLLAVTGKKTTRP
# T2 sequence (P41145 whole entry): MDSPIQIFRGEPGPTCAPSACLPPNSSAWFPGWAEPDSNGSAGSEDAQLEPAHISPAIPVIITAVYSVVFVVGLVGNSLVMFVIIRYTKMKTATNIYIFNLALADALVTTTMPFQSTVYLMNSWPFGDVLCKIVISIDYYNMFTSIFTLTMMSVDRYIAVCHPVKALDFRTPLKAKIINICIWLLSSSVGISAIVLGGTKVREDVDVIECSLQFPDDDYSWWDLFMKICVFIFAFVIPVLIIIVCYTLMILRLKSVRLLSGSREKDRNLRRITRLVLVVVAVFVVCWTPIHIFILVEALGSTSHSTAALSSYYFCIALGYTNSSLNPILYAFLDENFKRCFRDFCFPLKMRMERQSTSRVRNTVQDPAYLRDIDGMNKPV
# T1 sequence (P08659 whole entry): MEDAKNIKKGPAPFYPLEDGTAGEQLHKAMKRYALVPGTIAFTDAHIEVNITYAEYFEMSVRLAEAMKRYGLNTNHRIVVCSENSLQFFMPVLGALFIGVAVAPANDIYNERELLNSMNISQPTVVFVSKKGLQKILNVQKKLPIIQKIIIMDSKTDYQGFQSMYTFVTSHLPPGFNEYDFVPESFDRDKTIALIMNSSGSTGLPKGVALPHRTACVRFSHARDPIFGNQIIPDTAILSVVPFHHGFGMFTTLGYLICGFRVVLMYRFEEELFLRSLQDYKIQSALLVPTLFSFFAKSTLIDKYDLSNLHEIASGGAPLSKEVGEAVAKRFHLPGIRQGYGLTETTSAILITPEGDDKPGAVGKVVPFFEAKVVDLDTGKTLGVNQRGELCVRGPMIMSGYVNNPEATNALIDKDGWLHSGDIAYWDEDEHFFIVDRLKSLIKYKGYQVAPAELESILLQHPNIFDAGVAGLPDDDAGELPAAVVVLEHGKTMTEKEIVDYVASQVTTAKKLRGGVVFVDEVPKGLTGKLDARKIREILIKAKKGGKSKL
# Sequence of Glyceraldehyde-3-phosphate dehydrogenase (P04406 whole entry, the tested form may be a part): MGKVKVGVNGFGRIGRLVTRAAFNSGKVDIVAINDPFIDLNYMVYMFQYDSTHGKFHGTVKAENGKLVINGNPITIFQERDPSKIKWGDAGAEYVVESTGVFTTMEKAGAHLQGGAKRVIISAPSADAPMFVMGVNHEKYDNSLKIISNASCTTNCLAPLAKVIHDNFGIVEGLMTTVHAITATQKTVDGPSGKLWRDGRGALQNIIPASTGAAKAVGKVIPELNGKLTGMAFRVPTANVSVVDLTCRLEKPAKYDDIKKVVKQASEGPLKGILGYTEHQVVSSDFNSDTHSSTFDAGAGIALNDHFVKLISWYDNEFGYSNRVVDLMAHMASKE
# Sequence of Voltage-dependent T-type calcium channel subunit alpha-1H (O95180 whole entry): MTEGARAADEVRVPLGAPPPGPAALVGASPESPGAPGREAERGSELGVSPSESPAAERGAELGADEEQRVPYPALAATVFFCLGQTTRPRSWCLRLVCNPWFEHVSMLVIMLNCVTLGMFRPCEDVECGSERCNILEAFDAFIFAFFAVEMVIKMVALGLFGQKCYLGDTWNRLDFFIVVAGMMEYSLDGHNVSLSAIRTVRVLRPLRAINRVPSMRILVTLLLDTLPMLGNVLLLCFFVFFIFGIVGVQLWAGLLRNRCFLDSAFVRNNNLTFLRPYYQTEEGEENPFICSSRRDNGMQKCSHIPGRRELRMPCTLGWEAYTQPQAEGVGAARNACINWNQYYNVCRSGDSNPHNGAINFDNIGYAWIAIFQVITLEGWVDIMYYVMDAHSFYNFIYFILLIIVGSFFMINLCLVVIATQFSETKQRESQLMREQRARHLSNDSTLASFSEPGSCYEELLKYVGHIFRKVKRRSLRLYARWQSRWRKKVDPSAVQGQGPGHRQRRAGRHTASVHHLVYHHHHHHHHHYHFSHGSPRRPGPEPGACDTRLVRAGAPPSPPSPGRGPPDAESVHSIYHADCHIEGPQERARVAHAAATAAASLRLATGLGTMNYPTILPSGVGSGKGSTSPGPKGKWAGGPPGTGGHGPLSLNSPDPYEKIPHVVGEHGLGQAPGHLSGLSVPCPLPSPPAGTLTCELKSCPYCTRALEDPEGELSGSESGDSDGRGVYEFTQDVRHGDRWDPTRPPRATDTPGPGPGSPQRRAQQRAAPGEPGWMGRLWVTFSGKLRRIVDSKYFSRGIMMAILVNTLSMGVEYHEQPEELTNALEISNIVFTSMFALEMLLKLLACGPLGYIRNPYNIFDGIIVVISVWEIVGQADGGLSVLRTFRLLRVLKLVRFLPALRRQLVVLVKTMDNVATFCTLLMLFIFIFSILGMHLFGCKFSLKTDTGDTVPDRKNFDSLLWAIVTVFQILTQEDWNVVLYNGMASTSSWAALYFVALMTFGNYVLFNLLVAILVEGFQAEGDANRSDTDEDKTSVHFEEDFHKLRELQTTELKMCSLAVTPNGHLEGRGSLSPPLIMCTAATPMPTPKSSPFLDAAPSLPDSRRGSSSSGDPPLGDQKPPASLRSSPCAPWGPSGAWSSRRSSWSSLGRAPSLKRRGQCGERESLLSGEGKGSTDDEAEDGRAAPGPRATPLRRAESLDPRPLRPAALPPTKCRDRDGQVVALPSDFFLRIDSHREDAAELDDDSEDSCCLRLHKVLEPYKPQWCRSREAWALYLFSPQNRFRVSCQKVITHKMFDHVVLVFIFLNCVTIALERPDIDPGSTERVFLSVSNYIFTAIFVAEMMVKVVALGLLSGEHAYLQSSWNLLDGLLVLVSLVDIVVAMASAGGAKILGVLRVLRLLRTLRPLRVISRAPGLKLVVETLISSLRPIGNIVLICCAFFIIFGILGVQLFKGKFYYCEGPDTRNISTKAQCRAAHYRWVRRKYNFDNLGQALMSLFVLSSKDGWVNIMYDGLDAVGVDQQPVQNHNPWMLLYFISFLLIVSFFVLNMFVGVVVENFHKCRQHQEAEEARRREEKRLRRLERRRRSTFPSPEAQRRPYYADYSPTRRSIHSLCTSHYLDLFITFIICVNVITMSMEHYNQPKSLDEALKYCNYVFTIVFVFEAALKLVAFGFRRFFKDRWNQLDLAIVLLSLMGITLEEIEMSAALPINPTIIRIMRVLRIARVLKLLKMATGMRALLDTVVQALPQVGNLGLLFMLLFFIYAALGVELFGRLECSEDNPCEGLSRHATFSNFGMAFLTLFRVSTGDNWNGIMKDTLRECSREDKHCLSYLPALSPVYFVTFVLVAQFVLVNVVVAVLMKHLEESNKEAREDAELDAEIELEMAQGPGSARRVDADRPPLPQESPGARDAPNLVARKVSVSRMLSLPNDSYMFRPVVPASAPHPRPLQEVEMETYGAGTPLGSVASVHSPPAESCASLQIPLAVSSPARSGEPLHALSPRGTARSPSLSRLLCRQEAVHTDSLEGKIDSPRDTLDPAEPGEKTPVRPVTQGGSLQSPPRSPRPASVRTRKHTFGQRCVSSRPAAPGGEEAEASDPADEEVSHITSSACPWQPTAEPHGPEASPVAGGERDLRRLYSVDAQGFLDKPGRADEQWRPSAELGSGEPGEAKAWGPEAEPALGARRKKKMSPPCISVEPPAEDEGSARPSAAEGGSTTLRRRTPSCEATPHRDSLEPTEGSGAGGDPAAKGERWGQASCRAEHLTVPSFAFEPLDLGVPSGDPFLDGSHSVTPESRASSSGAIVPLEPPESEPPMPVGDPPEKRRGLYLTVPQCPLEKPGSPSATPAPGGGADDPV
# Sequence of Protein Tat (P04608 whole entry, the tested form may be a part): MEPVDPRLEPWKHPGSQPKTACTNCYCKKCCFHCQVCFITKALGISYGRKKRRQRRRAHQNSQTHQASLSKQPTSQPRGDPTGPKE
compound,measurement,setting,value
CCN(CC)C(=O)C1CCCN(Cc2cccc(Cl)c2)C1 (stereo unspecified),EC50,[1],1.33 µM (active)
same,AC50,Trypanosoma cruzi,9.91 µM (active)
Cc1cc(C(=O)CN2C(=O)c3ccccc3S2(=O)=O)c(C)n1CC1CCCO1 (stereo unspecified),EC50,HEK293 [2],> 8 µM (not active)
same,EC50,[3],> 8 µM (not active)
same,EC50,HT-1080,> 50 µM (not active)
same,EC50,HEK293 [4],8.14 µM (inactive)
same,IC50,[5],> 100 µM (not active)
same,AC50,[6],0.445 µM (active)
same,EC50,HEK293 [7],0.456 µM (active)
same,EC50,[8],1.17 µM (active)
same,EC50,HEK293 [9],6.87 µM (not active)
same,IC50,[10],> 39.8 µM (not active)
same,AC50,[11],0.287 µM (active)
same,AC50,[12],0.407 µM (active)
same,IC50,Protein Tat,> 100 µM (active)
same,AC50,[13],1.35 µM (active)
O=C(C1CCCN(S(=O)(=O)Cc2ccccc2)C1)N1CCC(Cc2ccccc2)CC1 (stereo unspecified),IC50,[14],> 32 µM
same,IC50,[15],> 31.5 µM (inactive)
same,EC50,[16],4.73 µM (active)
same,EC50,Beta-galactosidase,> 31.5 µM (inactive)
O=C(c1cccnc1)N(c1cc2sc(=O)oc2c2ccccc12)S(=O)(=O)c1ccccc1,IC50,[17],> 100 µM (inactive)
same,IC50,[18],> 100 µM (inactive)
same,IC50,[19],> 100 µM (inactive)
same,IC50,[20],> 100 µM (inactive)
same,AC50,INS1,6.65 µM (active)
same,CC50,Vero,> 40 µM (active)
